According to US20230145213A1, “Pre-conditioned mesenchymal stem cells and preparations and applications thereof” (BUDDHIST TZU CHI MEDICAL FOUNDATION, priority 2021, published 2023):

Key:
SH-SY5Y cells [1] = test: Transwell co-culture assay, SH-SY5Y cell viability by MTT; assay type: cell-based
Source text: In this and the following examples, human neuroblastoma cell line SH-SY5Y (a cell model of dopaminergic neurons for Parkinson's disease research) that was damaged by 6-hydroxydopamine (6-OHDA, i.e., 2,4,5-trihydroxyphenethylamine)-induced oxidative stress was used to assess the effects of GA on the homing ability of MSCs and the neuroprotective effects of GA pre-treated MSCs and the exosomes derived therefrom. SH-SY5Y cells were obtained from the American Type Culture Collection (ATCC; Manassas, Va., USA). The SH-SY5Y cells were cultured in a humidified incubator at 37° C. with 5% CO2. DMEM (Life Technologies, USA) supplemented with 10% FBS (Hyclone, Thermo Fisher Scientific, USA) and 1% penicillin-streptomycin (Gibco, Thermo Fisher Scientific, USA) was used for culturing of the SH-SY5Y cells.
To determine whether GA can promote MSCs to rescue nerve cell death, transwell co-culture assay was performed where WJMSCs (2×10^4 cells) pre-treated with 0, 20, 40, or 80 μM GA for 24 hours were placed in the upper chamber of a transwell insert, and SH-SY5Y cells (3×10^4 cells) treated with 100 μM 6-OHDA were seeded in the bottom well of the transwell plate. After co-culture of the cells at 37° C. for 24 hours, the SH-SY5Y cell viability was determined by MTT assay. […]

SH-SY5Y cells [2] = test: Western blotting of apoptosis-related, anti-apoptotic and OXPHOS proteins in 6-OHDA-stimulated SH-SY5Y cells; assay type: cell-based, human; details: FIG. 5C
Procedure: To further investigate the molecular events associated with the anti-apoptotic effects of GA pre-treated MSC-derived exosomes, the expression of apoptosis-related and anti-apoptotic proteins in 6-OHDA-stimulated SH-SY5Y cells was measured using western blotting. The damaged SH-SY5Y cells were treated with exosomes isolated either from GA pre-treated WJMSCs (80 μM GA for 24 hours) or untreated WJMSCs.
Moreover, the expression of mitochondrial proteins involved in oxidative phosphorylation (OXPHOS), including ATP5A, UQCRC2, MTCO1, SDHB, and NDUFB8, was examined by western blotting.

SH-SY5Y cells [3] = test: Autophagic flux in SH-SY5Y cells by LC3B immunofluorescence and western blotting; assay type: cell-based, human
Procedure: SH-SY5Y cells under 6-OHDA stimulation were treated with exosomes isolated either from GA pre-treated WJMSCs (80 μM GA for 24 hours) or untreated WJMSCs. For immunofluorescence staining, the treated cells were fixed in 4% PFA, incubated with an anti-LC3B primary antibody followed by a fluorophore-conjugated secondary antibody, and stained with 4′,6-diamidino-2-phenylindole (DAPI). The SH-SY5Y cells were then visualized by a fluorescence microscope (Olympus).

Row | SMILES | SH-SY5Y cell viability, effect of 6-OHDA (SH-SY5Y cells [1]; 100 μM 6-OHDA, MTT, FIG. 3A) | expression of mitochondrial OXPHOS proteins (ATP5A, UQCRC2, MTCO1, SDHB, NDUFB8) (SH-SY5Y cells [2]) | LC3 puncta (autophagosome formation) in SH-SY5Y cells (SH-SY5Y cells [3]; immunofluorescence, anti-LC3B, FIG. 6A) | autophagy-related protein expression (Beclin-1, LC3B, p62) in SH-SY5Y cells (SH-SY5Y cells [3]; western blotting, FIG. 6B) | protective effect of the GA pre-treated WJMSCs on SH-SY5Y viability in the presence of GW4869 (SH-SY5Y cells [1]; co-culture assay with exosome generation inhibitor, FIG. 3B)
1 | NCCc1cc(O)c(O)cc1O [6-OHDA, 2,4,5-trihydroxyphenethylamine] | decreased SH-SY5Y cell viability | downregulated the expression of the OXPHOS proteins | abundant | increased Beclin-1 and LC3B expression but decreased p62 protein expression | –
2 | O=C(/C=C/c1ccc(/C=C/C(=O)Nc2ccc(C3=NCCN3)cc2)cc1)Nc1ccc(C2=NCCN2)cc1 [GW4869] | – | – | – | – | suppressed
